# What was measured:
# [1] = molecular target: IDH1 R132H (Homo sapiens, UniProt O75874, R132H); assay: IDH1 R132H enzymatic assay (NADPH depletion coupled to diaphorase/resazurin); type: biochemical; conditions: IDH1 R132H enzymatic inhibition, IC50 class
# [2] = molecular target: IDH1 R132C (Homo sapiens, UniProt O75874, R132C); assay: IDH1 R132C enzymatic assay (NADPH depletion coupled to diaphorase/resazurin); type: biochemical; conditions: IDH1 R132C enzymatic inhibition, IC50 class
# Method in brief: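 NADPH depletion, read via diaphorase/resazurin coupling, after adding substrate at 0.6 mM α-KG and 0.012 mM NADPH. Beforehand, 0.00032 mg/mL enzyme sat with compound 30 min at room temperature in pH 6.5 potassium phosphate buffer with MgCl2, glycerol and BSA.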
# Sequence of IDH1 R132C (O75874 whole entry R132C): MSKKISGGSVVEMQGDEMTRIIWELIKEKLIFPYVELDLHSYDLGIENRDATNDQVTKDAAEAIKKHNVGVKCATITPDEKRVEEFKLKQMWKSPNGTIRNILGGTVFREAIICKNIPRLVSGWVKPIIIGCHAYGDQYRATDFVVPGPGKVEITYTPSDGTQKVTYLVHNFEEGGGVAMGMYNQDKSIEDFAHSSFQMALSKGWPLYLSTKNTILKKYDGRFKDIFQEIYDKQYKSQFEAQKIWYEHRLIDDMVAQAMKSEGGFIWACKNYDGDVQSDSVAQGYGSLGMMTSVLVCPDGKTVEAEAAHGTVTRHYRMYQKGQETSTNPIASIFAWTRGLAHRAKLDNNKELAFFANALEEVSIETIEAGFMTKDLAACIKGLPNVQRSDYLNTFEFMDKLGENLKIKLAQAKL
# Sequence of IDH1 R132H (O75874 whole entry R132H): as the sequence (O75874 whole entry R132C) above, with C132H counted along it
IC50 [1] [nM],IC50 [2] [nM],Compound
1000 to 5000,300 to 1000,CC1(C)CC(=O)c2cc(-c3nc(-c4ccc(Cl)cc4)cs3)c(=O)n(-c3ccccc3N3CCOCC3)c2C1 [Compound 248]
1000 to 5000,1000 to 5000,CCc1cccc(CC)c1-n1c2c(cc(-c3nc(-c4cccc(O)c4)cs3)c1=O)C(=O)CC(C)(C)C2 [Compound 249]
300 to 1000,300 to 1000,COC(=O)c1ccccc1-n1c2c(cc(-c3nc(-c4ccc(Cl)cc4)cs3)c1=O)C(=O)CC(C)(C)C2 [Compound 254]
1000 to 5000,1000 to 5000,CC1(C)CC(=O)c2cc(-c3nc(-c4ccncc4)cs3)c(=O)n(-c3ccccc3C(F)(F)F)c2C1 [Compound 255]
300 to 1000,300 to 1000,CC(C)COc1ccccc1-n1c2c(cc(-c3nc(-c4ccc(Cl)cc4)cs3)c1=O)C(=O)CC(C)(C)C2 [Compound 256]
5000 to 20000,5000 to 20000,COc1ccc(OC)c(-n2c3c(cc(-n4cc(-c5ccccc5)nn4)c2=O)C(=O)CC(C)(C)C3)c1 [Compound 261]
> 20000,> 20000,COc1ccc(OC)c(-n2c3c(cc(-c4ncc(-c5ccc(Cl)cc5)s4)c2=O)C(=O)CC(C)(C)C3)c1 [Compound 266]

# Continued, molecule first:
Compound,IC50 [1] [nM],IC50 [2] [nM]
CCc1cccc(CC)c1-n1c(C(C)C)c(C(=O)N2CCN[C@H](C(=O)OC)C2)cc(-c2nc(-c3ccc(Cl)cc3)cs2)c1=O [Compound 247],5000 to 20000,1000 to 5000
CCc1cccc(CC)c1-n1c(C)c(C(=O)N2CCCC(O)C2)cc(-c2nc(-c3ccc(Cl)cc3)cs2)c1=O (centres unmarked) [Compound 250],1000 to 5000,1000 to 5000
CCc1cccc(CC)c1-n1c2c(cc(-c3nc(-c4ccc(Cl)cc4)c(C)s3)c1=O)C(=O)CC(C)(C)C2 [Compound 251],300 to 1000,< 300
CCc1cccc(CC)c1-n1c(C(C)C)c(C(=O)N2CCN[C@H](CO)C2)cc(-c2nc(-c3ccc(Cl)cc3)cs2)c1=O [Compound 252],300 to 1000,300 to 1000
COc1ccc(OC)c(-n2c3c(cc(-c4nc(-c5ccc(Cl)cc5)cs4)c2=O)C(=O)CN(C)C3)c1 [Compound 253],1000 to 5000,1000 to 5000
CCc1cccc(CC)c1-n1c(CC(C)C)c(C(=O)N2CCNCC2)cc(-c2nc(-c3ccc(OC(C)C)cc3)c(C)s2)c1=O [Compound 257],300 to 1000,< 300
CCc1cccc(CC)c1-n1c(C)c(C(=O)N2CCCC2C(=O)O)cc(-c2nc(-c3ccc(Cl)cc3)cs2)c1=O (centres unmarked) [Compound 258],1000 to 5000,1000 to 5000
CCc1cccc(CC)c1-n1c(C)c(C(=O)N2CCCC(C(=O)O)C2)cc(-c2nc(-c3ccc(Cl)cc3)cs2)c1=O (centres unmarked) [Compound 259],5000 to 20000,5000 to 20000
CCc1cccc(CC)c1-n1c(C)c(C(=O)NCC(N)=O)cc(-c2nc(-c3ccc(Cl)cc3)cs2)c1=O [Compound 260],1000 to 5000,1000 to 5000
CCc1cccc(CC)c1-n1c(C)c(C(=O)NCCCO)cc(-c2nc(-c3ccc(Cl)cc3)cs2)c1=O [Compound 262],1000 to 5000,300 to 1000
CCc1cccc(CC)c1-n1c(CC(C)C)c(C(=O)NC2CCNCC2)cc(-c2nc(-c3ccc(Cl)cc3)cs2)c1=O [Compound 263],300 to 1000,< 300
CCc1cccc(CC)c1-n1c(C(C)C)c(C(=O)N2CCN[C@H](C(=O)O)C2)cc(-c2nc(-c3ccc(Cl)cc3)cs2)c1=O [Compound 264],300 to 1000,< 300
CCc1cccc(CC)c1-n1c(C)c(C(=O)NC2CC2)cc(-c2nc(-c3ccc(Cl)cc3)cs2)c1=O [Compound 265],1000 to 5000,1000 to 5000
CCc1cccc(CC)c1-n1c(CC(C)C)c(C(=O)N2CCNC[C@H]2C)cc(-c2nc(-c3ccc(Cl)cc3)cs2)c1=O [Compound 267],300 to 1000,< 300
"CCc1cccc(CC)c1-n1c(C)c(C(=O)OC)cc(-c2nc(-c3ccc(Cl)cc3)cs2)c1=O [Compound 268, methyl 5-(4-(4-chlorophenyl)thiazol-2-yl)-1-(2,6-diethylphenyl)-2-methyl-6-oxo-1,6-dihydropyridine-3-carboxylate]",> 20000,5000 to 20000
